Laboratory results reported in PubChem BioAssay (NCI).
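Exposure lasted 48 hours, with cells grown in 96-well plates and compounds tested at five concentrations. Definition used: TGI = concentration required for complete inhibition of growth.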

Experiments:
Assay in all cases: NCI-60 cell line screen, 48 h
[1] = tested on: SNB-75 CNS
[2] = tested on: UACC-257 melanoma
[3] = tested on: A498 renal
[4] = tested on: HCT-15 colon
[5] = tested on: MOLT-4 leukemia
[6] = tested on: UO-31 renal
[7] = tested on: T-47D breast
[8] = tested on: SF-539 CNS
[9] = tested on: K-562 leukemia
[10] = tested on: SR leukemia
[11] = tested on: IGROV1 ovarian
[12] = tested on: SF-295 CNS
[13] = tested on: HOP-62 NSCLC
[14] = tested on: HT29 colon
[15] = tested on: OVCAR-3 ovarian
[16] = tested on: SK-MEL-2 melanoma
[17] = tested on: UACC-62 melanoma

SMILES	TGI [1]	TGI [2]	TGI [3]	TGI [4]	TGI [5]	TGI [6]	TGI [7]	TGI [8]	TGI [9]	TGI [10]	TGI [11]	TGI [12]	TGI [13]	TGI [14]	TGI [15]	TGI [16]	TGI [17]
CC(=O)OC12c3ccccc3C(c3ccccc31)C1C(=O)N(c3ccccc3O)C(=O)C12 (stereo not drawn)	> 100 µM	> 100 µM	> 100 µM	> 100 µM	> 100 µM	> 100 µM	> 100 µM	> 100 µM	> 100 µM	> 100 µM	> 100 µM	> 100 µM	> 100 µM	> 100 µM	> 100 µM		
COc1ccc2cc(NC(=O)Nn3cnnc3)ccc2c1	> 100 µM	> 100 µM	> 100 µM	> 100 µM	> 100 µM	> 100 µM	> 100 µM	> 100 µM	> 100 µM	> 100 µM	> 100 µM	> 100 µM	> 100 µM	> 100 µM	> 100 µM	> 100 µM	> 100 µM
[N-]=[N+]=NCC(=O)c1c[nH]c(=O)[nH]c1=O	> 100 µM	> 100 µM	> 100 µM	> 100 µM		> 100 µM	> 100 µM	> 100 µM	> 100 µM	> 100 µM	> 100 µM	> 100 µM	> 100 µM	> 100 µM	> 100 µM	> 100 µM	> 100 µM
CO[C@@H]1C[C@H]2[C@@H]3CC[C@H]([C@@H](C)COC(C)=O)[C@@]3(C)CC[C@@H]2[C@@]2(C)CC[C@H]3C[C@]312	33.5 µM	24.4 µM	35.6 µM	27 µM	32.3 µM	32.4 µM	31.1 µM	37.3 µM	27.7 µM	26.5 µM	30.2 µM	28.3 µM	31.5 µM	19.9 µM	27.7 µM		
Cc1ccc(S(=O)(=O)NN=C2C(C)CC(C(C)(C)C)CC2C)cc1 (stereo not drawn)	37.8 µM	36.6 µM	31.4 µM	34.4 µM	43 µM	40.8 µM	50.7 µM	> 100 µM	44.1 µM	62.2 µM	> 100 µM	33.1 µM	31.6 µM	32.8 µM	31.8 µM	32.9 µM	93.2 µM
C=CC(C)(C)c1c(OC)oc2ccc(OC)c(C)c2c1=O	> 100 µM	> 100 µM	> 100 µM	> 100 µM	> 100 µM	> 100 µM	> 100 µM	> 100 µM	> 100 µM	> 100 µM	> 100 µM	> 100 µM	> 100 µM	> 100 µM	> 100 µM	> 100 µM	> 100 µM
CC1NC(=O)c2c(-c3ccccc3)nn(-c3ccccc3)c2NC1=O (stereo not drawn)	> 100 µM	> 100 µM	> 100 µM	> 100 µM	> 100 µM	> 100 µM	> 100 µM		> 100 µM	> 100 µM	> 100 µM	> 100 µM	> 100 µM	> 100 µM	> 100 µM	> 100 µM	> 100 µM
Nc1ccc(-c2nnc(-c3c(Cl)c(Cl)c(Cl)c(Cl)c3-c3nc4ccc(C(=O)c5ccccc5)cc4[nH]3)o2)cc1	69.2 µM	> 100 µM	63.2 µM	61 µM	66.7 µM	> 100 µM	78.5 µM	29.3 µM	31.6 µM	28.2 µM	> 100 µM	58.5 µM	79.9 µM	40.8 µM	62.6 µM	88.3 µM	
CC1(C)OP(=O)(c2ccccc2)C=C1Br (stereo not drawn)	> 100 µM	> 100 µM	> 100 µM	> 100 µM			> 100 µM	> 100 µM	> 100 µM	> 100 µM	> 100 µM	> 100 µM	> 100 µM	> 100 µM	> 100 µM	> 100 µM	> 100 µM
CC(=O)OC12c3ccccc3C(c3ccccc31)C1C(=O)N(Nc3ccccc3)C(=O)C12 (stereo not drawn)	> 100 µM	> 100 µM	> 100 µM	> 100 µM	> 100 µM	> 100 µM	> 100 µM	> 100 µM	> 100 µM	> 100 µM	> 100 µM	> 100 µM	> 100 µM	> 100 µM	> 100 µM		
Clc1ccc(-c2cn3c(nc4ccccc43)c(/C=C/c3cccs3)n2)cc1	> 100 µM	> 100 µM	> 100 µM	> 100 µM		> 100 µM	> 100 µM	> 100 µM	> 100 µM	> 100 µM	> 100 µM		> 100 µM	> 100 µM	> 100 µM	> 100 µM	> 100 µM
Oc1c(Nc2ccccc2)cc2c3c1N=NC=3CCN=2	> 100 µM		> 100 µM	> 100 µM	87.3 µM	> 100 µM	> 100 µM	> 100 µM	> 100 µM	> 100 µM	> 100 µM	> 100 µM	> 100 µM	> 100 µM	> 100 µM	> 100 µM	49.2 µM
CCOC(=O)C(=O)N=Nc1c(O)[nH]c2ccccc12	> 100 µM	> 100 µM	> 100 µM	> 100 µM	> 100 µM	> 100 µM	> 100 µM		> 100 µM	> 100 µM	> 100 µM	> 100 µM	> 100 µM			> 100 µM	> 100 µM
Cc1ccc(C)n1-n1c(Cc2ccc(Cl)cc2)n[nH]c1=O	> 100 µM	> 100 µM	> 100 µM	> 100 µM	> 100 µM	> 100 µM	> 100 µM		> 100 µM	> 100 µM	> 100 µM	> 100 µM	> 100 µM	> 100 µM	> 100 µM	> 100 µM	> 100 µM
Cc1ccc(C2=NN=C3C(c4ccccc4)=Nc4ccccc4N3C2)cc1		33.6 µM	> 100 µM	> 100 µM	> 35.5 µM	> 42 µM	> 100 µM	> 100 µM	> 100 µM	> 100 µM	> 100 µM	> 100 µM	> 63.8 µM	> 81.1 µM	10.4 µM	> 100 µM	> 100 µM
CNC(=S)N/N=C(\C)c1cc(OC)c(OC)cc1O	> 100 µM	> 100 µM	> 100 µM	> 100 µM	> 100 µM	> 100 µM	> 100 µM	> 100 µM	> 100 µM	> 100 µM	> 100 µM		> 100 µM	> 100 µM	> 100 µM	> 100 µM	> 100 µM
Cc1ccc(OC2CC(n3cnc4c(=O)[nH]c(Br)nc43)OC2Oc2ccc(C)cc2)cc1 (stereo not drawn)		62.2 µM	> 100 µM	91.6 µM	50.5 µM	38.4 µM	62.1 µM	50.1 µM	51.1 µM	51.1 µM	66.9 µM	61.9 µM	49.5 µM	83.4 µM	39.9 µM	75.8 µM	53.7 µM
O=C(Nn1c(-c2ccccc2)nc2ccccc2c1=O)c1ccc([N+](=O)[O-])cc1	> 100 µM	> 100 µM	> 100 µM	> 100 µM	> 100 µM	> 100 µM	> 100 µM	> 100 µM	> 100 µM	> 100 µM	> 100 µM	> 100 µM	> 100 µM	> 100 µM	> 100 µM		> 100 µM
C/C(CC(O)(C(F)(F)Cl)C(F)(F)Cl)=N\Nc1ccccc1	78.9 µM	> 100 µM	> 100 µM	> 100 µM	84.2 µM	> 100 µM	> 100 µM	> 100 µM	> 100 µM	> 100 µM	> 100 µM	> 100 µM		> 100 µM	48.3 µM	79.7 µM	> 100 µM
COc1cc(Br)cc2c1O[C@H]1C(=O)CC3CC21CCN3C (stereo partly drawn)		> 100 µM	> 100 µM	> 100 µM	61.6 µM	> 100 µM	74 µM	> 100 µM	46.3 µM	> 100 µM	> 100 µM	> 100 µM	> 100 µM	> 100 µM	> 100 µM	> 100 µM	> 100 µM
COc1cc(S(=O)(=O)Nc2ccc(-c3csc(/N=C\c4ccccc4O)n3)cc2)ccc1Cl	> 100 µM		> 100 µM	> 100 µM	70.3 µM	> 100 µM	61.2 µM	> 100 µM	> 100 µM	95.2 µM	> 100 µM	> 100 µM	> 100 µM	> 100 µM	> 100 µM	78.5 µM	> 100 µM
CC[C@H](C)[C@H](NC(=O)[C@H](Cc1ccc(O)cc1)NCC(F)(F)F)C(=O)OC(C)(C)C	17.5 µM	14.7 µM	14.8 µM	34.2 µM	22 µM	14.8 µM	18.3 µM	21 µM	27.2 µM	20.8 µM	16.4 µM	15.2 µM	20.5 µM	16.3 µM		13.9 µM	12.9 µM
